In patent US12129235B2, “TSPO binders” (The University Court of the University of Glasgow, priority 2018, dated 2024):

Experiments:
[1] = Dosimetry from whole-body mouse PET, OLINDA/EXM adult human phantom; assay type: in vivo, mice; settings: for Effective Dose / Estimated Absorbed Dose, Adrenals / Estimated Absorbed Dose, Brain / Estimated Absorbed Dose, Breasts / Estimated Absorbed Dose, Gallbladder Wall / Estimated Absorbed Dose, Heart Wall / Estimated Absorbed Dose, Kidneys / Estimated Absorbed Dose, LLI Wall / Estimated Absorbed Dose, Liver / Estimated Absorbed Dose, Lungs / Estimated Absorbed Dose, Muscle / Estimated Absorbed Dose, Osteogenic Cells / Estimated Absorbed Dose, Ovaries / Estimated Absorbed Dose, Pancreas / Estimated Absorbed Dose, Red Marrow / Estimated Absorbed Dose, Skin / Estimated Absorbed Dose, Small Intestine / Estimated Absorbed Dose, Spleen / Estimated Absorbed Dose, Stomach Wall / Estimated Absorbed Dose, Thymus / Estimated Absorbed Dose, Thyroid / Estimated Absorbed Dose, Total Body / Estimated Absorbed Dose, ULI Wall / Estimated Absorbed Dose, Urinary Bladder Wall / Estimated Absorbed Dose, Uterus / Estimated Absorbed Dose, Testes: adult human phantom
Protocol: 13 PET scans were performed with ^18F-LW223 (mean injected radioactivity of 19.55±2.1 MBq). Scans were acquired following i.v. bolus injection of ^18F-LW223 via tail vein or femoral vein shunt (invasive kinetic modelling experiments with β-probe automatic blood sampler) in rats. Test-retest scans were obtained in three rats following i.v. bolus of the radiotracer, with two weeks interval between test and retest imaging sessions. […] These scans were compared to baseline scans where no PK11195 was used. For displacement studies, rats received i.v. administration of ^18F-LW223 and scanned continuously for 120 min. […] A male and female mouse were initially used to derive the dosimetry estimates for ^18F-LW223 over a 4 h dynamic scan, followed by additional mice in a further study (in a study with a mean injected radioactivity of 10.83±5.6 MBq).
The following organs were identified as source organs: brain, heart, lungs, gallbladder, liver, gut, adrenals, kidneys and bladder. A whole-body VOI was drawn around the animal body and was used for quantification of whole-body remainder activity as whole-body activity minus source organs activity. At each time point, the measured activity of the source organs was expressed as the percent injected dose (% ID).
The residence time T, defined as the ratio of accumulated activity in the target organ (A) and injected activity (A0); τ=Ā/A0, was calculated as the area under the curve of the tissue time-activity curve normalized to % ID from time zero to infinity. The trapezoidal method was used for estimating T and after the last measured time point, it was assumed that the radiotracer underwent only physical decay with no biological elimination from the source organ. Calculated T were normalized for differences in mouse and human organ weights as a percentage of total body weight (based on data known from Khanuja et al.; Bielohuby et al.; Stabin et al.; Hindorf et al.; and Hui et al.), and entered into OLINDA/EXM 1.0 software, which was used to estimate organ doses and effective doses according to the male or female model implemented in OLINDA/EXM 1.0.

TSPO = TSPO (Homo sapiens, UniProt P30536); assay: ^18F-LW223 human autoradiography (stroke and diseased coronary tissue); assay type: binding; parameters: Paraffin embedded human deep brain stoke tissue and diseased coronary tissue sections; from tissue; host or cells: human deep brain stroke tissue and diseased coronary tissue sections
Text: Slides were washed twice with buffer before being air dried and exposed to a Fujifilm BAS-IP MS 2040 phosphor screen (Fujifilm, Japan). Phosphor screens were imaged on a Fujifilm FLA5100 imaging plate reader (Fujifilm, Japan). Global regions of interest were drawn around whole tissue sections to calculate % SB. To calculate target:non-target ratios, regional sampling analysis was used within the same tissue in the highest and lowest uptake areas.

[2] = Female, additional work with further mice
[3] = Male, additional work with further mice

Sequence of TSPO (P30536 whole entry): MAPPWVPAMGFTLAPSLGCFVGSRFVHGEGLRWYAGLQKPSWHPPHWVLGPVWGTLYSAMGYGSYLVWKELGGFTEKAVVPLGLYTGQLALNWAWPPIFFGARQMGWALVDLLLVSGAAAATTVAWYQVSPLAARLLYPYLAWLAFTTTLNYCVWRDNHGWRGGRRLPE

CC[C@@H](C)N(C)C(=O)c1nc2ccccc2c(-c2ccccc2)c1C[18F] [^18F-LW223, (R)-(N-sec-Butyl)-3-[19-fluoro]-methyl-N-methyl-4-phenylquinoline-2-carboxamide]
Effective Dose [1, 2]: 2.37E−02 mSv/MBq
Estimated Absorbed Dose, Adrenals [1, 2]: 3.54E−02 mGy/MBq
Estimated Absorbed Dose, Brain [1, 2]: 5.49E−03 mGy/MBq
Estimated Absorbed Dose, Breasts [1, 2]: 8.51E−03 mGy/MBq
Estimated Absorbed Dose, Gallbladder Wall [1, 2]: 2.40E−02 mGy/MBq
Estimated Absorbed Dose, Heart Wall [1, 2]: 1.80E−02 mGy/MBq
Estimated Absorbed Dose, Kidneys [1, 2]: 1.48E−02 mGy/MBq
Estimated Absorbed Dose, LLI Wall [1, 2]: 8.94E−02 mGy/MBq
Estimated Absorbed Dose, Liver [1, 2]: 1.88E−02 mGy/MBq
Estimated Absorbed Dose, Lungs [1, 2]: 3.10E−02 mGy/MBq
Estimated Absorbed Dose, Muscle [1, 2]: 9.70E−03 mGy/MBq
Estimated Absorbed Dose, Osteogenic Cells [1, 2]: 1.52E−02 mGy/MBq
Estimated Absorbed Dose, Ovaries [1, 2]: 1.63E−02 mGy/MBq
Estimated Absorbed Dose, Pancreas [1, 2]: 1.25E−02 mGy/MBq
Estimated Absorbed Dose, Red Marrow [1, 2]: 9.72E−03 mGy/MBq
Estimated Absorbed Dose, Skin [1, 2]: 7.33E−03 mGy/MBq
Estimated Absorbed Dose, Small Intestine [1, 2]: 1.29E−02 mGy/MBq
Estimated Absorbed Dose, Spleen [1, 2]: 1.10E−02 mGy/MBq
Estimated Absorbed Dose, Stomach Wall [1, 2]: 1.14E−02 mGy/MBq
Estimated Absorbed Dose, Thymus [1, 2]: 1.06E−02 mGy/MBq
Estimated Absorbed Dose, Thyroid [1, 2]: 8.89E−03 mGy/MBq
Estimated Absorbed Dose, Total Body [1, 2]: 1.06E−02 mGy/MBq
Estimated Absorbed Dose, ULI Wall [1, 2]: 1.24E−02 mGy/MBq
Estimated Absorbed Dose, Urinary Bladder Wall [1, 2]: 1.49E−02 mGy/MBq
Estimated Absorbed Dose, Uterus [1, 2]: 1.28E−02 mGy/MBq
Effective Dose ([1]; Female, initial mouse study): 1.84E−02 mSv/MBq
Estimated Absorbed Dose, Adrenals ([1]; Female, initial mouse study): 4.38E−02 mGy/MBq
Estimated Absorbed Dose, Brain ([1]; Female, initial mouse study): 8.38E−03 mGy/MBq
Estimated Absorbed Dose, Breasts ([1]; Female, initial mouse study): 1.16E−02 mGy/MBq
Estimated Absorbed Dose, Gallbladder Wall ([1]; Female, initial mouse study): 2.80E−02 mGy/MBq
Estimated Absorbed Dose, Heart Wall ([1]; Female, initial mouse study): 3.96E−02 mGy/MBq
Estimated Absorbed Dose, Kidneys ([1]; Female, initial mouse study): 2.67E−02 mGy/MBq
Estimated Absorbed Dose, LLI Wall ([1]; Female, initial mouse study): 1.61E−02 mGy/MBq
Estimated Absorbed Dose, Liver ([1]; Female, initial mouse study): 2.04E−02 mGy/MBq
Estimated Absorbed Dose, Lungs ([1]; Female, initial mouse study): 4.52E−02 mGy/MBq
Estimated Absorbed Dose, Muscle ([1]; Female, initial mouse study): 1.27E−02 mGy/MBq
Estimated Absorbed Dose, Osteogenic Cells ([1]; Female, initial mouse study): 2.01E−02 mGy/MBq
Estimated Absorbed Dose, Ovaries ([1]; Female, initial mouse study): 1.71E−02 mGy/MBq
Estimated Absorbed Dose, Pancreas ([1]; Female, initial mouse study): 1.68E−02 mGy/MBq
Estimated Absorbed Dose, Red Marrow ([1]; Female, initial mouse study): 1.25E−02 mGy/MBq
Estimated Absorbed Dose, Skin ([1]; Female, initial mouse study): 9.71E−03 mGy/MBq
Estimated Absorbed Dose, Small Intestine ([1]; Female, initial mouse study): 3.97E−02 mGy/MBq
Estimated Absorbed Dose, Spleen ([1]; Female, initial mouse study): 1.51E−02 mGy/MBq
Estimated Absorbed Dose, Stomach Wall ([1]; Female, initial mouse study): 1.54E−02 mGy/MBq
Estimated Absorbed Dose, Thymus ([1]; Female, initial mouse study): 1.47E−02 mGy/MBq
Estimated Absorbed Dose, Thyroid ([1]; Female, initial mouse study): 1.19E−02 mGy/MBq
Estimated Absorbed Dose, Total Body ([1]; Female, initial mouse study): 1.40E−02 mGy/MBq
Estimated Absorbed Dose, ULI Wall ([1]; Female, initial mouse study): 1.89E−02 mGy/MBq
Estimated Absorbed Dose, Urinary Bladder Wall ([1]; Female, initial mouse study): 1.51E−02 mGy/MBq
Estimated Absorbed Dose, Uterus ([1]; Female, initial mouse study): 1.67E−02 mGy/MBq
Effective Dose [1, 3]: 2.05E−02 mSv/MBq
Estimated Absorbed Dose, Adrenals [1, 3]: 2.22E−02 mGy/MBq
Estimated Absorbed Dose, Brain [1, 3]: 5.89E−03 mGy/MBq
Estimated Absorbed Dose, Breasts [1, 3]: 7.18E−03 mGy/MBq
Estimated Absorbed Dose, Gallbladder Wall [1, 3]: 2.01E−02 mGy/MBq
Estimated Absorbed Dose, Heart Wall [1, 3]: 2.03E−02 mGy/MBq
Estimated Absorbed Dose, Kidneys [1, 3]: 1.57E−02 mGy/MBq
Estimated Absorbed Dose, LLI Wall [1, 3]: 7.82E−02 mGy/MBq
Estimated Absorbed Dose, Liver [1, 3]: 1.30E−02 mGy/MBq
Estimated Absorbed Dose, Lungs [1, 3]: 3.10E−02 mGy/MBq
Estimated Absorbed Dose, Muscle [1, 3]: 8.04E−03 mGy/MBq
Estimated Absorbed Dose, Osteogenic Cells [1, 3]: 1.20E−02 mGy/MBq
Estimated Absorbed Dose, Pancreas [1, 3]: 1.03E−02 mGy/MBq
Estimated Absorbed Dose, Red Marrow [1, 3]: 8.22E−03 mGy/MBq
Estimated Absorbed Dose, Skin [1, 3]: 6.09E−03 mGy/MBq
Estimated Absorbed Dose, Small Intestine [1, 3]: 1.11E−02 mGy/MBq
Estimated Absorbed Dose, Spleen [1, 3]: 9.11E−03 mGy/MBq
Estimated Absorbed Dose, Stomach Wall [1, 3]: 9.42E−03 mGy/MBq
Estimated Absorbed Dose, Testes [1, 3]: 7.70E−03 mGy/MBq
Estimated Absorbed Dose, Thymus [1, 3]: 8.97E−03 mGy/MBq
Estimated Absorbed Dose, Thyroid [1, 3]: 7.90E−03 mGy/MBq
Estimated Absorbed Dose, Total Body [1, 3]: 8.85E−03 mGy/MBq
Estimated Absorbed Dose, ULI Wall [1, 3]: 9.96E−03 mGy/MBq
Estimated Absorbed Dose, Urinary Bladder Wall [1, 3]: 1.16E−02 mGy/MBq
Effective Dose ([1]; Male, initial mouse study): 1.53E−02 mSv/MBq
Estimated Absorbed Dose, Adrenals ([1]; Male, initial mouse study): 3.72E−02 mGy/MBq
Estimated Absorbed Dose, Brain ([1]; Male, initial mouse study): 7.01E−03 mGy/MBq
Estimated Absorbed Dose, Breasts ([1]; Male, initial mouse study): 9.21E−03 mGy/MBq
Estimated Absorbed Dose, Gallbladder Wall ([1]; Male, initial mouse study): 2.42E−02 mGy/MBq
Estimated Absorbed Dose, Heart Wall ([1]; Male, initial mouse study): 3.07E−02 mGy/MBq
Estimated Absorbed Dose, Kidneys ([1]; Male, initial mouse study): 2.38E−02 mGy/MBq
Estimated Absorbed Dose, LLI Wall ([1]; Male, initial mouse study): 1.28E−02 mGy/MBq
Estimated Absorbed Dose, Liver ([1]; Male, initial mouse study): 1.56E−02 mGy/MBq
Estimated Absorbed Dose, Lungs ([1]; Male, initial mouse study): 3.57E−02 mGy/MBq
Estimated Absorbed Dose, Muscle ([1]; Male, initial mouse study): 1.02E−02 mGy/MBq
Estimated Absorbed Dose, Osteogenic Cells ([1]; Male, initial mouse study): 1.54E−02 mGy/MBq
Estimated Absorbed Dose, Ovaries ([1]; Male, initial mouse study): 1.40E−02 mGy/MBq
Estimated Absorbed Dose, Pancreas ([1]; Male, initial mouse study): 1.35E−02 mGy/MBq
Estimated Absorbed Dose, Red Marrow ([1]; Male, initial mouse study): 1.02E−02 mGy/MBq
Estimated Absorbed Dose, Skin ([1]; Male, initial mouse study): 7.82E−03 mGy/MBq
Estimated Absorbed Dose, Small Intestine ([1]; Male, initial mouse study): 3.38E−02 mGy/MBq
Estimated Absorbed Dose, Spleen ([1]; Male, initial mouse study): 1.19E−02 mGy/MBq
Estimated Absorbed Dose, Stomach Wall ([1]; Male, initial mouse study): 1.23E−02 mGy/MBq
Estimated Absorbed Dose, Testes ([1]; Male, initial mouse study): 9.46E−03 mGy/MBq
Estimated Absorbed Dose, Thymus ([1]; Male, initial mouse study): 1.16E−02 mGy/MBq
Estimated Absorbed Dose, Thyroid ([1]; Male, initial mouse study): 1.02E−02 mGy/MBq
Estimated Absorbed Dose, Total Body ([1]; Male, initial mouse study): 1.12E−02 mGy/MBq
Estimated Absorbed Dose, ULI Wall ([1]; Male, initial mouse study): 1.52E−02 mGy/MBq
Estimated Absorbed Dose, Urinary Bladder Wall ([1]; Male, initial mouse study): 1.37E−02 mGy/MBq
critical organ ([1]; additional work with further mice): lower intestinal wall
whole-body effective dose ([1]; female phantom, additional work with further mice (Table 2)): 23.7 μSv/MBq
whole-body effective dose ([1]; female phantom, initial mouse study (Table 1)): 18.4 μSv/MBq
critical organ ([1]; initial mouse study): adrenal gland
whole-body effective dose ([1]; male phantom, additional work with further mice (Table 2)): 20.5 μSv/MBq
whole-body effective dose ([1]; male phantom, initial mouse study (Table 1)): 15.3 μSv/MBq
blocking of ^18F-LW223 binding (TSPO; deep brain stroke tissue, blocking with PK11195 30 μM): could not be sufficiently blocked
target:non-target ratio (TSPO; diseased coronary tissue): 4.5
% specific binding (% SB) (TSPO; diseased coronary tissue, blocking with LW223 10 μM): 88.1±3.4%
% specific binding (% SB) (TSPO; diseased coronary tissue, blocking with PK11195 10 μM): 75.3±3.2%
target:non-target ratio (TSPO; stroke tissue): 7.5
% specific binding (% SB) (TSPO; stroke tissue, blocking with LW223 10 μM): 42.5±7.0%
